Patent publication US10988522B2, “Proteolically resistant cyclotides with angiotensin 1-7 like activity” (University of Southern California, priority 2016, dated 2021)

Columns and labels:
[1] = system: human lung adenocarcinoma xenografts; conditions: cited from earlier work
human lung cancer cells = conditions: through activation of MAS1; cited from earlier work
recombinant human MAS1 = biological target: T1, recombinant human MAS1 (Homo sapiens, UniProt P04201); experiment: MAS1 activation: cell-based fluorescence assay of NO release in CHO cells stably transfected with MAS1; conditions: for intracellular concentration of NO in the presence of MAS1 antagonist A779: A779 at 0.1 μM for 15 min before addition; for intracellular concentration of NO (fluorescence): no antagonist, 2 hours
T1 construct: expressed in transfected cells; host or cells: CHO cells, stably transfected with pTEJ-8 vector
T1 sequence (P04201 1-325): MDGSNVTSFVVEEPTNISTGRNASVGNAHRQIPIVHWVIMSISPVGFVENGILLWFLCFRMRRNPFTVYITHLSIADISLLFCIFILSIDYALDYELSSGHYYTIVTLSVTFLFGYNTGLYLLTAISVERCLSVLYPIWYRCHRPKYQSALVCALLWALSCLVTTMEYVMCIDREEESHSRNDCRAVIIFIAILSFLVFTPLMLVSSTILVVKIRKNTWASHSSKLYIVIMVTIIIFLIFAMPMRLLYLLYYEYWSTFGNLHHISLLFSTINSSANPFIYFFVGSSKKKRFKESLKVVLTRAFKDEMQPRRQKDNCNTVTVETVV
Procedure: CHO cells stably transfected with pTEJ-8 vector expressing recombinant human MAS1 clone are grown to confluency. After washing, cells are incubated for a short time in 700 μL of supplemented Tyrode's salts containing 10 μM 2-phenyl-4,4,5,5-tetramethylimidazoline-1-oxyl-3-oxide (PTIO), 100 μM 2,3-diaminonaftalene (DAN), and 1 mM L-arginine. When using antagonist for competition assays, cells are exposed to MAS1 antagonist A779 (D-Ala^7-AT 1-7) at 0.1 μM for 15 min before addition of the cyclotides to be tested. Different concentrations of the cyclotides to be analyzed are added to the cell medium and the plates are agitated for 1 min before being placed into the incubator for 2 hours. After 2 hours, the cellular supernatants are transferred to opaque 96 well plates, and the amount of released NO is measured by fluorescence (λex=380 nm, λem=425 nm).

[2] = Procedure: This was accomplished by incubating the corresponding peptides in human serum at 37° C. The quantitative analysis of undigested polypeptides was performed using liquid chromatography coupled with tandem mass spectrometry (LC-MS/MS). Naturally occurring MCoTI-cyclotides present a very rigid structure, which makes them extremely stable to proteolytic degradation.
Human serum was spun down at 15,000 rpm for 10 min to separate the lipid components. Peptides (about 15 μg dissolved in 15 μl PBS) were mixed with 150 μl human serum and incubated in a 37° C. water bath. Aliquot samples (15 μL) were taken at different time points and serum protein were precipitated with about 70% MeCN at 4° C. for 10 min. The supernatant was separated, lyophilized, dissolved in 5% MeCN in water containing 0.1% formic acid, and analyzed by HPLC-MS/MS.

cyclooxygenase-2 (COX-2) = conditions: xenograft tumor; cited from earlier work
cyclooxygenase 1 (COX-1) = conditions: same xenograft tumor; cited from earlier work

| Compound | tumor growth [1] | serum-stimulated growth of human lung cancer cells (human lung cancer cells) | intracellular concentration of NO in the presence of MAS1 antagonist A779 (recombinant human MAS1; MAS1-transfected CHO cells) | intracellular concentration of NO (fluorescence) (recombinant human MAS1; MAS1-transfected CHO cells) | τ1/2 in human serum [2] [min] | COX-2 activity (cyclooxygenase-2 (COX-2)) | COX-1 activity (cyclooxygenase 1 (COX-1)) | MAS1 agonist activity (summary statement) (recombinant human MAS1; MAS1-transfected CHO cells) | activity relative to that of peptide AT1-7 (recombinant human MAS1; at 10 nM, NO release assay) |
| --- | --- | --- | --- | --- | --- | --- | --- | --- | --- |
| CC[C@H](C)[C@H](NC(=O)[C@H](Cc1ccc(O)cc1)NC(=O)[C@@H](NC(=O)[C@H](CCCNC(=N)N)NC(=O)[C@@H](N)CC(=O)O)C(C)C)C(=O)N[C@@H](Cc1c[nH]cn1)C(=O)N1CCC[C@H]1C(=O)O [AT1-7, DRVYIHP] | inhibit tumor growth | reduce serum-stimulated growth of human lung cancer cells both in vitro and in vivo | A similar profile was obtained | increase the intracellular concentration of NO in a dose dependent manner | 44 ± 3 | reduction in cyclooxygenase-2 (COX-2) activity | no effect | – | – |
| GGVCPKILQRCRRDSDCPGACICRGNGYCGSGXRVYIHE [MCo-AT1-7, MCoTI-I cyclotide with AT1-7-derived peptide (Asp1 to diaminopropionic acid, Pro7 to Glu) grafted onto loop 6 via two isopeptide bonds] | – | – | no increase in the intracellular concentration of NO was detected | increase the intracellular concentration of NO in a dose dependent manner | – | – | – | potent MAS1 agonist, with similar activity to that of the peptide AT1-7 | about 90% |
